From PMC9789040, “Inhibition of triple negative breast cancer-associated inflammation and progression by N- acylethanolamine acid amide hydrolase (NAAA)” (Scientific Reports, 2022) come the findings set out here.

The target of the experiment is T1, N-acylethanolamine acid amidase (NAAA) (Homo sapiens, UniProt Q02083).
T1 construct: purified human NAAA
T1 sequence (Q02083 29-125): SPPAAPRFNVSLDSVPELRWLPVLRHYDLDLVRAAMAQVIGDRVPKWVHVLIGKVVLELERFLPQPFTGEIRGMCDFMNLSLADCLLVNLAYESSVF
T1 sequence (Q02083 126-359): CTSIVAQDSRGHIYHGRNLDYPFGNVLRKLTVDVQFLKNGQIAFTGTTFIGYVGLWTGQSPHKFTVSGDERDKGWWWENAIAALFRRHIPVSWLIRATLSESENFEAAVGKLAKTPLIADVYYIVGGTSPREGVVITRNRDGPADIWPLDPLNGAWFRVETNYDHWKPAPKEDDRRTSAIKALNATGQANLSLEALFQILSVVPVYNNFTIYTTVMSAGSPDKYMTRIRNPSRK
As to the kind of experiment: fluorogenic PAMCA hydrolysis assay with purified human NAAA, […] min preincubation, 8-point curve. It counts as biochemical.

Turning to `COc1ccc(-c2ccc(COC3CC(N=C=S)C3)nc2)cc1F` (stereo not shown) [AM11095], the 50% inhibitory concentration (IC50) – broadly, the concentration that gives 50% inhibition – came to 20 nM.
